Experimental findings from patent US12421191B2, “3-hydroxyoxindole derivatives as CRHR2 antagonist” (RaQualia Pharma Inc., priority 2020, dated 2025) are described below.

This test concerns the target T1, human CRHR2-alpha (Homo sapiens, UniProt Q13324).
T1 construct: host or cells: CHO-K1
T1 sequence (Q13324 1-411): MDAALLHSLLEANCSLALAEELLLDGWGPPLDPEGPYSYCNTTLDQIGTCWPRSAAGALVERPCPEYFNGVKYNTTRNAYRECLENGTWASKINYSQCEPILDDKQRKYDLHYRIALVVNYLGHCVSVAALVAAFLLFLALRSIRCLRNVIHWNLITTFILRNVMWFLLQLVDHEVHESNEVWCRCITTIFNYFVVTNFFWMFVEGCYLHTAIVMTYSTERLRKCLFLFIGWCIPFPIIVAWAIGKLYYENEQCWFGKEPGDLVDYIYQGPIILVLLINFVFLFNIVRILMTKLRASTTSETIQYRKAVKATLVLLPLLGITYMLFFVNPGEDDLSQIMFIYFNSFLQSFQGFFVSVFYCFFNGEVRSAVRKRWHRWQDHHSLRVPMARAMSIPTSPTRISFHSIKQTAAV
Briefly: cAMP functional assay for human CRHR2 (LANCE Ultra TR-FRET). The format is cell-based. Conditions: inhibition of cAMP production in CHO-K1 cells stably expressing human CRHR2-alpha, EC90 of human urocortin2 as agonist; read-out: IC50 against CRHR2. The protocol:
cAMP functional assay for human CRHR2 The ability of the compounds of this invention to inhibit either CRHR2 is assessed by 3′,5′-cyclic adenosine monophosphate (cAMP) production in cells using the LANCE Ultra cAMP assay kit (ParkinElmer), which are designed based on the homogeneous time-resolved fluorescence resonance energy transfer (TR-FRET) immunoassay.
CHO-K1 (Chinese hamster ovary) cells stably expressing human CRHR2-alpha (DiscoveRX, Cat. 95-0048C2) are grown in HAM's F12 media supplemented with 10% fetal bovine serum (FBS), 100 units/mL penicillin G, 100 microg/mL hygromycin and 0.5 microg/mL geneticin at 37° C. in 5% CO2 humidified incubator to 80% confluence. After 7 hours starvation treatment in culture media containing 0.1% FBS, the cells are washed with Hanks balanced salt solution (HBSS) and cryopreserved.
For cAMP assay, frozen cells are thawed and washed with HBSS, followed by resuspending cells in assay buffer (HBSS containing 0.1% bovine serum albumin, 0.5 mM isobutylmethylxanthine and 5 mM Hepes, pH 7.4) at the appropriate concentration for the assay. The cell suspensions are plated on 384-well microplates (Greiner Bio-One) at a density of 4,000 cells per well. After preincubating the cells with various concentrations of the compounds for 30 min at 25° C., an assay buffer containing EC90 concentration of agonist is added and the cells are incubated for 30 min at 25° C. Human urocortin2 (Peptide Institute) is used as agonists for CRHR2. For the termination of assay, europium-labeled cAMP tracer and ULight (registered trademark) dye labeled cAMP antibodies, both prepared with Lance-Ultra cAMP detection reagent (PerkinElmer) are added in the plate and incubate for 60 min at 25° C. After incubation, TR-FRET signal is detected by EnVision plate reader (PerkinElmer). The IC50 values for compounds are calculated from dose-response curves by fitting the percent inhibition using XLfit (ID Business Solutions).
Regarding `O=C(N[C@H]1CC[C@H](CN2C(=O)C(O)(c3ccc(F)cc3F)c3ccccc32)CC1)c1cc(Cl)cnc1C(F)F` (stereo partly shown) [Example 53, 5-chloro-2-(difluoromethyl)-N-((1r,4r)-4-((3-(2,4-difluorophenyl)-3-hydroxy-2-oxoindolin-1-yl)methyl)cyclohexyl) nicotinamide], the 50% inhibitory concentration (IC50) is < 200 nM.

As to `O=C(N[C@H]1CC[C@H](CN2C(=O)C(O)(c3sccc3F)c3ccccc32)CC1)c1cc(Cl)cnc1C(F)F` (stereo partly shown) [Example 95, 5-chloro-2-(difluoromethyl)-N-((1r,4r)-4-((3-(3-fluorothiophen-2-yl)-3-hydroxy-2-oxoindolin-1-yl)methyl)cyclohexyl) nicotinamide], the IC50 was < 200 nM.

Consider `COc1ccc(F)c(C2(O)C(=O)N(C[C@H]3CC[C@H](NC(=O)c4cc(Cl)cnc4C(F)F)CC3)c3ccc(F)cc32)c1` (stereo partly shown) [Example 168, 5-chloro-2-(difluoromethyl)-N-((1r,4r)-4-((5-fluoro-3-(2-fluoro-5-methoxyphenyl)-3-hydroxy-2-oxoindolin-1-yl)methyl)cyclohexyl) nicotinamide], for which the IC50 was < 200 nM.

Take `O=C(N[C@H]1CC[C@H](CN2C(=O)C(O)(c3ccccc3)c3ccc(Cl)cc32)CC1)c1cc(Cl)cnc1C(F)F` (stereo partly shown) [Example 30, 5-chloro-N-((1r,4r)-4-((6-chloro-3-hydroxy-2-oxo-3-phenylindolin-1-yl)methyl)cyclohexyl)-2-(difluoromethyl)nicotinamide]: the IC50 was < 200 nM. `O=C(N[C@H]1CC[C@H](CN2C(=O)C(O)(c3cc(F)ccc3F)c3ccccc32)CC1)c1cc(Cl)cnc1C(F)F` (stereo partly shown) [Example 58, 5-chloro-2-(difluoromethyl)-N-((1r,4r)-4-((3-(2,5-difluorophenyl)-3-hydroxy-2-oxoindolin-1-yl)methyl)cyclohexyl) nicotinamide]: the IC50 is < 200 nM. Consider `O=C(N[C@H]1CC[C@H](CN2C(=O)C(O)(c3ccc(F)c(F)c3F)c3ccccc32)CC1)c1cc(Cl)cnc1C(F)F` (stereo partly shown) [Example 135, 5-chloro-2-(difluoromethyl)-N-((1r,4r)-4-((3-hydroxy-2-oxo-3-(2,3,4-trifluorophenyl)indolin-1-yl)methyl)cyclohexyl) nicotinamide], for which the IC50 was < 200 nM. On to `O=C(N[C@H]1CC[C@H](CN2C(=O)C(O)(c3cccc(F)c3F)c3c(F)cccc32)CC1)c1cc(Cl)cnc1C(F)F` (stereo partly shown) [Example 192, 5-chloro-2-(difluoromethyl)-N-((1r,4r)-4-((3-(2,3-difluorophenyl)-4-fluoro-3-hydroxy-2-oxoindolin-1-yl)methyl)cyclohexyl) nicotinamide], for which the IC50 is < 200 nM. For the molecule `O=C(N[C@H]1CC[C@H](CN2C(=O)C(O)(c3cccc(F)c3)c3ccccc32)CC1)c1cc(Cl)cnc1C(F)F` (stereo partly shown) [Example 20, 5-chloro-2-(difluoromethyl)-N-((1r,4r)-4-((3-(3-fluorophenyl)-3-hydroxy-2-oxoindolin-1-yl)methyl)cyclohexyl) nicotinamide], the 50% inhibitory concentration (IC50) was < 200 nM. As for `O=C(N[C@H]1CC[C@H](CN2C(=O)C(O)(c3ccsc3)c3ccccc32)CC1)c1cc(Cl)cnc1C(F)F` (stereo partly shown) [Example 92, 5-chloro-2-(difluoromethyl)-N-((1r,4r)-4-((3-hydroxy-2-oxo-3-(thiophen-3-yl)indolin-1-yl)methyl)cyclohexyl) nicotinamide], the IC50 was < 200 nM. `O=C(N[C@H]1CC[C@H](CN2C(=O)C(O)(c3ccccc3F)c3ccccc32)CC1)c1cc(Cl)cnc1C(F)F` (stereo partly shown) [Example 33, 5-chloro-2-(difluoromethyl)-N-((1r,4r)-4-((3-(2-fluorophenyl)-3-hydroxy-2-oxoindolin-1-yl)methyl)cyclohexyl) nicotinamide]: the IC50 was < 200 nM. Take `N#Cc1ccc(F)c(C2(O)C(=O)N(C[C@H]3CC[C@H](NC(=O)c4cc(Cl)cnc4C(F)F)CC3)c3ccccc32)c1` (stereo partly shown) [Example 59, 5-chloro-N-((1r,4r)-4-((3-(5-cyano-2-fluorophenyl)-3-hydroxy-2-oxoindolin-1-yl)methyl)cyclohexyl)-2-(difluoromethyl)nicotinamide]: the 50% inhibitory concentration (IC50) is < 200 nM.

Consider `Cc1ncc(Cl)cc1C(=O)N[C@H]1CC[C@H](CN2C(=O)C(O)(c3cc(F)cc(F)c3F)c3ccccc32)CC1` (stereo partly shown) [Example 132, 5-chloro-N-((1r,4r)-4-((3-hydroxy-2-oxo-3-(2,3,5-trifluorophenyl)indolin-1-yl)methyl)cyclohexyl)-2-methylnicotinamide], for which the IC50 is < 200 nM. In the case of `O=C(N[C@H]1CC[C@H](CN2C(=O)C(O)(c3ccccc3F)c3c(F)cccc32)CC1)c1cc(Cl)cnc1C(F)F` (stereo partly shown) [Example 191, 5-chloro-2-(difluoromethyl)-N-((1r,4r)-4-((4-fluoro-3-(2-fluorophenyl)-3-hydroxy-2-oxoindolin-1-yl)methyl)cyclohexyl) nicotinamide], the IC50 is < 200 nM. Turning to `O=C(N[C@H]1CC[C@H](CN2C(=O)C(O)(c3ccncc3F)c3ccc(F)cc32)CC1)c1cc(Cl)cnc1C(F)F` (stereo partly shown) [Example 85, 5-chloro-2-(difluoromethyl)-N-((1r,4r)-4-((6-fluoro-3-(3-fluoropyridin-4-yl)-3-hydroxy-2-oxoindolin-1-yl)methyl)cyclohexyl) nicotinamide], the IC50 was < 200 nM. As for `COc1cccc(C2(O)C(=O)N(C[C@H]3CC[C@H](NC(=O)c4cc(Cl)cnc4C(F)F)CC3)c3ccccc32)c1F` (stereo partly shown) [Example 66, 5-chloro-2-(difluoromethyl)-N-((1r,4r)-4-((3-(2-fluoro-3-methoxyphenyl)-3-hydroxy-2-oxoindolin-1-yl)methyl)cyclohexyl) nicotinamide], the IC50 is < 200 nM. With `O=C(N[C@H]1CC[C@H](CN2C(=O)C(O)(c3cccc(Cl)c3F)c3ccc(F)cc32)CC1)c1cc(Cl)cnc1C(F)F` (stereo partly shown) [Example 117, 5-chloro-N-((1r,4r)-4-((3-(3-chloro-2-fluorophenyl)-6-fluoro-3-hydroxy-2-oxoindolin-1-yl)methyl)cyclohexyl)-2-(difluoromethyl)nicotinamide], the IC50 is < 200 nM. `Cc1ncc(Cl)cc1C(=O)N[C@H]1CC[C@H](CN2C(=O)C(O)(c3cccc(F)c3F)c3ccccc32)CC1` (stereo partly shown) [Example 173, 5-chloro-N-((1r,4r)-4-((3-(2,3-difluorophenyl)-3-hydroxy-2-oxoindolin-1-yl)methyl)cyclohexyl)-2-methylnicotinamide]: the IC50 is < 200 nM. As for `Cc1ccc2c(c1)N(C[C@H]1CC[C@H](NC(=O)c3cc(Cl)cnc3C(F)F)CC1)C(=O)C2(O)c1ccncc1F` (stereo partly shown) [Example 149, 5-chloro-2-(difluoromethyl)-N-((1r,4r)-4-((3-(3-fluoropyridin-4-yl)-3-hydroxy-6-methyl-2-oxoindolin-1-yl)methyl)cyclohexyl) nicotinamide], the IC50 was < 200 nM. Take `COc1ccc2c(c1)N(C[C@H]1CC[C@H](NC(=O)c3cc(Cl)cnc3C(F)F)CC1)C(=O)C2(O)c1ccccc1F` (stereo partly shown) [Example 105, 5-chloro-2-(difluoromethyl)-N-((1r,4r)-4-((3-(2-fluorophenyl)-3-hydroxy-6-methoxy-2-oxoindolin-1-yl)methyl)cyclohexyl) nicotinamide]: the IC50 is < 200 nM. `O=C(N[C@H]1CC[C@H](CN2C(=O)C(O)(c3ccc(Cl)cn3)c3c(F)cccc32)CC1)c1cc(Cl)cnc1C(F)F` (stereo partly shown) [Example 140, 5-chloro-N-((1r,4r)-4-((3-(5-chloropyridin-2-yl)-4-fluoro-3-hydroxy-2-oxoindolin-1-yl)methyl)cyclohexyl)-2-(difluoromethyl)nicotinamide]: the IC50 was < 200 nM. For `COc1ccc(C2(O)C(=O)N(C[C@H]3CC[C@H](NC(=O)c4cc(Cl)cnc4C)CC3)c3ccccc32)c(F)c1F` (stereo partly shown) [Example 139, 5-chloro-N-((1r,4r)-4-((3-(2,3-difluoro-4-methoxyphenyl)-3-hydroxy-2-oxoindolin-1-yl)methyl)cyclohexyl)-2-methylnicotinamide], the IC50 is < 200 nM. In the case of `O=C(N[C@H]1CC[C@H](CN2C(=O)C(O)(c3cccc(F)c3F)c3ccccc32)CC1)c1cc(Cl)cnc1Cl` (stereo partly shown) [Example 167, 2,5-dichloro-N-((1r,4r)-4-((3-(2,3-difluorophenyl)-3-hydroxy-2-oxoindolin-1-yl)methyl)cyclohexyl) nicotinamide], the IC50 was < 200 nM.
